Data from patent US10143201B2, “Fungicidal compositions” (Syngenta Crop Protection LLC, priority 2007, dated 2018).
Where “and” joins values, the source holds several entries; their conditions need not be identical. Equal entries are not always repeated. Blank lines part the entries; values can stand above or below the compound they belong to.

Key:
[1] = system: Cercospora arachidicola (syn. Mycosphaerella arachidis); test: Fungicidal action against Cercospora arachidicola (brown leaf spot of groundnut), microtiter growth inhibition; format: cell-based; conditions: compound alone
Description: Example B8: Fungicidal Action Against Cercospora arachidicola (Syn. Mycosphaerella arachidis), Brown Leaf Spot of Groundnut (Peanut)
(§1) Conidia of the fungus from cryogenic storage are directly mixed into nutrient broth (PDB potato dextrose broth). After placing a (DMSO) solution of the test compounds into a microtiter plate (96-well format) the nutrient broth containing the fungal spores is added. The test plates are incubated at 24 C and the inhibition of growth is evaluated after 7 days.

Phakopsora pachyrhizi = test: Action against Asian soybean rust, leaf disc test; format: in vivo; conditions: 14 days after inoculation
Description: Example B-1: Action Against Asian Soybean Rust (Phakopsora pachyrhizi)—Leaf Disc Test
Whole soybean plants (variety brand Williams82) are treated with the recited active ingredients 4 weeks after planting. 1 day after spraying leaf disks are cut from the first trifoliate leaf. Five repetitions at each rate are conducted. The leaf disks are inoculated with Phakopsora pachyrhizi (Asian soybean rust) one day after treatment. Evaluation of the leaf disks is conducted fourteen days after inoculation and the mean percent infestation of the five repetitions is calculated. Standard EC100 formulations are used. The rates of the active ingredients used are given in Table B1 as g active ingredient (a.i.)/ha.

Botrytis cinerea = test: Fungicidal action against Botrytis cinerea (gray mould), microtiter growth inhibition; format: cell-based; conditions: alone
Description: Example B2: Fungicidal Action Against Botrytis cinerea (Gray Mould)
as §1, with “24° C.” for “24 C”, “4” for “7”, “days. The expected fungicidal action is calculated according to the Colby method.” for “days.”

Gaeumannomyces graminis = test: Fungicidal action against Gaeumannomyces graminis (take-all of cereals), microtiter growth inhibition; format: cell-based; conditions: compound alone
Description: Example B7: Fungicidal Action Against Gaeumannomyces graminis (Take-all of Cereals)
as §1, with “Mycelial fragments” for “Conidia”, “4” for “7”

Pyrenophora teres = test: Fungicidal action against Pyrenophora teres (net blotch), microtiter growth inhibition; format: cell-based
Description: Example B6: Fungicidal Action Against Pyrenophora teres (Net Blotch)
as §1, with “24° C.” for “24 C”, “4” for “7”, “days. The expected fungicidal action is calculated according to the Colby method.” for “days.”

[2] = system: Monopraphella nivalis (syn. Microdochium nivale, Fusarium nivale); test: Fungicidal action against Monopraphella nivalis (snow mould, foot rot of cereals), microtiter growth inhibition; format: cell-based; conditions: compound alone; for inhibition at 0.25 ppm: 0.2500 ppm
Description: Example B9: Fungicidal Action Against Monopraphella nivalis (Syn. Microdochium nivale, Fusarium nivale), Snow Mould, Foot Rot of Cereals
as §1, with “4” for “7”

Alternaria solani = test: Fungicidal action against Alternaria solani (early blight tomato/potato), microtiter growth inhibition; format: cell-based; conditions: alone
Description: Example B4: Fungicidal Action Against Alternaria solani (Early Blight Tomato/Potato)
as §1, with “24° C.” for “24 C”, “3” for “7”, “days. The expected fungicidal action is calculated according to the Colby method.” for “days.”

[3] = system: Pseudocercosporella herpotrichoides (syn. Tapesia yallundae); test: Fungicidal action against Pseudocercosporella herpotrichoides (eye spot of cereals), microtiter growth inhibition; format: cell-based; conditions: alone
Description: Example B5: Funicidal Action Against Pseudocercosporella herpotrichoides (Syn. Tapesia yallundae), Eye Spot of Cereals
as §1, with “24° C.” for “24 C”, “4” for “7”, “days. The expected fungicidal action is calculated according to the Colby method.” for “days.”

Septoria tritici = test: Fungicidal action against Septoria tritici (leaf blotch), microtiter growth inhibition; format: cell-based; conditions: alone
Description: Example B3: Fungicidal Action Against Septoria tritici (Leaf Blotch)
as §1, with “24° C.” for “24 C”, “4” for “7”, “days. The expected fungicidal action is calculated according to the Colby method.” for “days.”

[4] = system: Colletotrichum lagenarium (syn. Glomerella lagenarium); test: Fungicidal action against Colletotrichum lagenarium (anthracnose of cucurbits), microtiter growth inhibition; format: cell-based; conditions: compound alone
Description: as §1, with “Example B10: Fungicidal Action Against Colletotrichum lagenarium (Syn. Glomerella lagenarium), Anthracnose of Cucurbits Conidia” for “Conidia”, “3” for “7”

[5] = Microdochium nivale, 0.0625 ppm
[6] = Microdochium nivale, 0.1250 ppm

melting point: 183 to 188 °C and 179 to 181 °C
Compound: Cn1cc(C(=O)Nc2cccc3c2C2CCC3C2=C(Cl)Cl)c(C(F)(F)F)n1 (centres unmarked)

Compound: Cn1cc(C(=O)Nc2cccc3c2C2CCC3C2=C(Cl)Cl)c(C(F)F)n1 (centres unmarked) [Compound A-1.1, 3-difluoromethyl-1-methyl-1H-pyrazole-4-carboxylic acid (9-dichloromethylidene-benzonorbornene-5-yl)amide]
% activity ([1]; 0.0039 ppm): 0%
% activity ([1]; 0.0078 ppm): 0%
% activity ([1]; 0.0156 ppm): 20%
% activity ([1]; 0.0313 ppm): 70%
% Control of Phakopsora pachyrhizi (Phakopsora pachyrhizi; 31.25 g a.i./ha): 36%
% Control of Phakopsora pachyrhizi (Phakopsora pachyrhizi; 62.5 g a.i./ha): 36%
% Control of Phakopsora pachyrhizi (Phakopsora pachyrhizi; 125 g a.i./ha): 82%
% Control of Phakopsora pachyrhizi (Phakopsora pachyrhizi; 250 g a.i./ha): 87%
% activity (Botrytis cinerea; 0.0156 ppm): 0%
% activity (Botrytis cinerea; 0.0313 ppm): 0%
% activity (Botrytis cinerea; 0.0625 ppm): 20%
% activity (Botrytis cinerea; 0.1250 ppm): 20%
% activity (Botrytis cinerea; 0.5000 ppm): 50% and 70%
% activity (Botrytis cinerea; 1.0000 ppm): 90%
% activity (Gaeumannomyces graminis; 0.0156 ppm): 50% and 70%
% activity (Pyrenophora teres; 0.0078 ppm, alone): 0%
% activity (Pyrenophora teres; 0.0313 ppm, alone): 20%
% activity (Pyrenophora teres; 0.0625 ppm, alone): 20%
% activity (Pyrenophora teres; 0.1250 ppm, alone): 20%
% activity (Pyrenophora teres; 0.2500 ppm, alone): 50%
% activity (Pyrenophora teres; compound alone, 0.0313 ppm): 20%
% activity (Pyrenophora teres; compound alone, 0.0625 ppm): 20%
% activity (Pyrenophora teres; compound alone, 0.2500 ppm): 50%
% activity (Pyrenophora teres; compound alone, 0.5000 ppm): 50% and 70%
% activity (Pyrenophora teres; compound alone, 1.0000 ppm): 70%
% activity (Pyrenophora teres; compound alone, 2.0000 ppm): 70%
% activity ([2]; 0.0313 ppm): 20%
% activity ([2]; 0.0625 ppm): 50%
% activity ([2]; 0.1250 ppm): 90%
% activity (Alternaria solani; 0.0078 ppm): 0%
% activity (Alternaria solani; 0.0156 ppm): 20%
% activity (Alternaria solani; 0.0313 ppm): 20%
% activity (Alternaria solani; 0.0625 ppm): 50%
% activity (Alternaria solani; 0.1250 ppm): 50%
% activity (Alternaria solani; 0.2500 ppm): 50%
% activity ([3]; 0.0039 ppm): 0%
% activity ([3]; 0.0078 ppm): 0%
% activity ([3]; 0.0625 ppm): 70%
% activity (Septoria tritici; 0.0625 ppm): 20%
% activity (Septoria tritici; 0.1250 ppm): 50%
% activity (Septoria tritici; 0.2500 ppm): 70%
% activity (Septoria tritici; 0.5000 ppm): 90%

Compound: Cn1cc(C(=O)Nc2cccc3c2C2CCC3C2=C(F)F)c(C(F)F)n1 (centres unmarked) [Compound A-1.2, 3-difluoromethyl-1-methyl-1H-pyrazole-4-carboxylic acid (9-difluoromethylidene-benzonorbornene-5-yl)amide]
% activity ([1]; 0.0156 ppm): 0%
% activity ([1]; 0.0313 ppm): 0%
% activity ([1]; 0.0625 ppm): 0%
% activity ([1]; 0.1250 ppm): 20%
% activity ([1]; 0.2500 ppm): 70% and 50%
% Control of Phakopsora pachyrhizi (Phakopsora pachyrhizi; 31.25 g a.i./ha): 39%
% Control of Phakopsora pachyrhizi (Phakopsora pachyrhizi; 62.5 g a.i./ha): 54%
% Control of Phakopsora pachyrhizi (Phakopsora pachyrhizi; 125 g a.i./ha): 44%
% Control of Phakopsora pachyrhizi (Phakopsora pachyrhizi; 250 g a.i./ha): 94%
% activity (Botrytis cinerea; 0.0313 ppm): 0%
% activity (Botrytis cinerea; 0.1250 ppm): 20%
% activity (Botrytis cinerea; 0.2500 ppm): 20%
% activity (Botrytis cinerea; 0.5000 ppm): 20%
% activity (Botrytis cinerea; 1.0000 ppm): 50%
% activity (Botrytis cinerea; 2.0000 ppm): 70%
% activity (Gaeumannomyces graminis; 0.0156 ppm): 0%
% activity (Gaeumannomyces graminis; 0.0313 ppm): 0%
% activity (Gaeumannomyces graminis; 0.0625 ppm): 0%
% activity (Gaeumannomyces graminis; 0.1250 ppm): 0%
% activity (Gaeumannomyces graminis; 0.5000 ppm): 70% and 90%
% activity (Pyrenophora teres; 0.0078 ppm, alone): 0%
% activity (Pyrenophora teres; 0.0156 ppm, alone): 0%
% activity (Pyrenophora teres; 0.0313 ppm, alone): 0%
% activity (Pyrenophora teres; 0.1250 ppm, alone): 20%
% activity (Pyrenophora teres; 0.2500 ppm, alone): 20%
% activity (Pyrenophora teres; compound alone, 0.0313 ppm): 0%
% activity (Pyrenophora teres; compound alone, 0.1250 ppm): 20%
% activity (Pyrenophora teres; compound alone, 0.2500 ppm): 20%
% activity (Pyrenophora teres; compound alone, 0.5000 ppm): 50%
% activity (Pyrenophora teres; compound alone, 1.0000 ppm): 50%
% activity (Pyrenophora teres; compound alone, 2.0000 ppm): 70%
% activity ([2]; 1.0000 ppm): 50%
% activity ([2]; 2.0000 ppm): 70%
% activity (Alternaria solani; 0.0313 ppm): 0%
% activity (Alternaria solani; 0.1250 ppm): 20%
% activity (Alternaria solani; 0.2500 ppm): 50%
% activity (Alternaria solani; 0.5000 ppm): 50%
% activity ([3]; 0.0039 ppm): 0%
% activity ([3]; 0.0078 ppm): 0%
% activity ([3]; 0.0156 ppm): 0%
% activity ([3]; 0.0313 ppm): 0%
% activity ([3]; 0.0625 ppm): 0%
% activity ([3]; 0.5000 ppm): 70%
% activity (Septoria tritici; 0.0078 ppm): 0%
% activity (Septoria tritici; 0.0156 ppm): 0%
% activity (Septoria tritici; 0.1250 ppm): 0%
% activity (Septoria tritici; 0.2500 ppm): 20%
% activity (Septoria tritici; 0.5000 ppm): 50%
% activity (Septoria tritici; 1.0000 ppm): 70%
% activity ([4]; 0.0313 ppm): 0%
% activity ([4]; 0.0625 ppm): 0%
% activity ([4]; 0.1250 ppm): 0%
% activity ([4]; 0.5000 ppm): 20%
% activity ([4]; 1.0000 ppm): 50%

Compound: Cn1cc(C(=O)Nc2cccc3c2C2CCC3C2=C(Br)Br)c(C(F)F)n1 (centres unmarked) [Compound A-1.3, 3-difluoromethyl-1-methyl-1H-pyrazole-4-carboxylic acid (9-dibromomethylidene-benzonorbornene-5-yl)amide]
% Control of Phakopsora pachyrhizi (Phakopsora pachyrhizi; 31.25 g a.i./ha): 36%
% Control of Phakopsora pachyrhizi (Phakopsora pachyrhizi; 62.5 g a.i./ha): 36%
% Control of Phakopsora pachyrhizi (Phakopsora pachyrhizi; 125 g a.i./ha): 54%
% Control of Phakopsora pachyrhizi (Phakopsora pachyrhizi; 250 g a.i./ha): 93%

Compound: Cn1cc(C(=O)Nc2ccc(F)cc2-c2ccc(Cl)c(Cl)c2)c(C(F)F)n1 [Compound B-5.11, 3-difluoromethyl-1-methyl-1H-pyrazole-4-carboxylic acid (3′,4′-dichloro-5-fluoro-1,1′-biphenyl-2-yl)-amide]
inhibition at 0.0039 ppm ([1]; Mycosphaerella arachidis, 0.0039 ppm, read-out: % activity): 0%
inhibition at 0.0078 ppm ([1]; Mycosphaerella arachidis, 0.0078 ppm, read-out: % activity): 0%
inhibition at 0.0156 ppm ([1]; Mycosphaerella arachidis, 0.0156 ppm): 20%
inhibition at 0.0313 ppm ([1]; Mycosphaerella arachidis, 0.0313 ppm): 70%
inhibition at 0.0313 ppm ([2]; Microdochium nivale, 0.0313 ppm): 0%
inhibition at 0.0625 ppm [2, 5]: 0%
inhibition at 0.125 ppm [2, 6]: 0%
inhibition at 0.25 ppm ([2]; Microdochium nivale): 20%

Compound: CC(Cc1ccc(C(C)(C)C)cc1)CN1C[C@@H](C)O[C@@H](C)C1 (some centres unmarked) [Fenpropimorph]
inhibition at 0.0625 ppm ([1]; Mycosphaerella arachidis, 0.0625 ppm): 0%
inhibition at 0.125 ppm ([1]; Mycosphaerella arachidis, 0.1250 ppm): 0%
inhibition at 0.25 ppm ([1]; Mycosphaerella arachidis, 0.2500 ppm): 20%
inhibition at 0.5 ppm ([1]; Mycosphaerella arachidis, 0.5000 ppm): 50%
inhibition at 0.25 ppm (Gaeumannomyces graminis; Gaeumannomyces graminis, 0.2500 ppm): 0%
inhibition at 0.5 ppm (Gaeumannomyces graminis; Gaeumannomyces graminis, 0.5000 ppm): 0%
inhibition at 1 ppm (Gaeumannomyces graminis; Gaeumannomyces graminis, 1.0000 ppm): 0%
inhibition at 2 ppm (Gaeumannomyces graminis; Gaeumannomyces graminis, 2.0000 ppm): 20%
inhibition at 0.0625 ppm [2, 5]: 0%
inhibition at 0.125 ppm [2, 6]: 0%
inhibition at 0.25 ppm ([2]; Microdochium nivale): 0%
inhibition at 0.5 ppm ([2]; Microdochium nivale, 0.5000 ppm): 0%
inhibition at 1 ppm ([2]; Microdochium nivale, 1.0000 ppm): 0%
inhibition at 2 ppm ([2]; Microdochium nivale, 2.0000 ppm): 0%
inhibition at 0.25 ppm ([4]; Colletotrichum orbiculare, 0.2500 ppm): 0%
inhibition at 0.5 ppm ([4]; Colletotrichum orbiculare, 0.5000 ppm): 0%
inhibition at 1 ppm ([4]; Colletotrichum orbiculare, 1.0000 ppm): 20%
inhibition at 2 ppm ([4]; Colletotrichum orbiculare, 2.0000 ppm): 20%

Compound: CC(C)C1CCC(Cc2ccc(Cl)cc2)C1(O)Cn1cncn1 (centres unmarked) [Ipconazole]
inhibition at 0.125 ppm ([4]; Colletotrichum orbiculare, 0.1250 ppm): 20%
